Source: patent US8563714B2, “Bridged spiro [2.4] heptane derivatives as ALX receptor and/or FPRL2 agonists” (Actelion Pharmaceuticals Ltd., priority 2009, dated 2013)

Tests used:
[1] = target: T1, human FPRL2 (Homo sapiens, UniProt P25089); test: Intracellular calcium measurements (FLIPR), agonistic activity in HEK293-hFPRL2-Gα16 cells; assay type: cell-based; details: Fluo-4 calcium FLIPR, normalized to GLY14-Humanin 100 nM
T1 construct: expressed in transfected cells; host or cells: HEK293 (HEK293-hFPRL2-Gα16)
T1 sequence (P25089 1-353): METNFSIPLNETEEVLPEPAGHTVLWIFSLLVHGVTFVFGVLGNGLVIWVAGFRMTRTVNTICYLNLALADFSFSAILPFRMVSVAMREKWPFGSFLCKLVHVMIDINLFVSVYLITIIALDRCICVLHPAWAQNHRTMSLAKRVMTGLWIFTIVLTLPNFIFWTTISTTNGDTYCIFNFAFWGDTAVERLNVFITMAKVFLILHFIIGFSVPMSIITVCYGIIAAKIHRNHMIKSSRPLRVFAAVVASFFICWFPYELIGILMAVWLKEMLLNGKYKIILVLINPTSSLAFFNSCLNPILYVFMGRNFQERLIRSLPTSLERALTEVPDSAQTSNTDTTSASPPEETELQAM
Experimental: (§1) The ALX receptor and FPRL2 agonistic activities of the compounds of formula (I) are determined in accordance with the following experimental method.
(§2) Intracellular Calcium Measurements:
Cells expressing recombinant human FPRL2 and the G-protein Gα16 (HEK293-hFPRL2-Gα16) were grown to 80% confluency in Growing Medium (GM). […] Stock solutions of test compounds were made up at a concentration of 10 mM in DMSO, and serially diluted in AB to concentrations required for activation dose response curves. Gly14-Humanin (Humanin peptide with replacement of Serine by Glycine at position 14, Phoenix Peptides) was used as a reference agonist. FLIPR384 or FLIPR Tetra instruments (Molecular Devices) were operated according to the manufacturer's standard instructions, adding 4 μl of test compound dissolved at 10 mM in DMSO and diluted prior to the experiment in assay buffer to obtain the desired final concentration. Changes in fluorescence were monitored before and after the addition of test compounds at lex=488 nm and lem=540 nm. Emission peak values above base level after compounds addition were exported after base line subtraction. Values were normalized to high-level control (GLY14-Humanin compound, 100 nM final concentration) after subtraction of the base line value (AB addition).

[2] = target: T2, human ALX receptor (Homo sapiens, UniProt P25090); test: Intracellular calcium measurements (FLIPR), agonistic activity in HEK293-hALXR-Gα16 cells; assay type: cell-based; details: Fluo-4 calcium FLIPR, normalized to WKYMVm 10 nM
T2 construct: expressed in transfected cells; host or cells: HEK293 (HEK293-hALXR-Gα16)
T2 sequence (P25090 1-351): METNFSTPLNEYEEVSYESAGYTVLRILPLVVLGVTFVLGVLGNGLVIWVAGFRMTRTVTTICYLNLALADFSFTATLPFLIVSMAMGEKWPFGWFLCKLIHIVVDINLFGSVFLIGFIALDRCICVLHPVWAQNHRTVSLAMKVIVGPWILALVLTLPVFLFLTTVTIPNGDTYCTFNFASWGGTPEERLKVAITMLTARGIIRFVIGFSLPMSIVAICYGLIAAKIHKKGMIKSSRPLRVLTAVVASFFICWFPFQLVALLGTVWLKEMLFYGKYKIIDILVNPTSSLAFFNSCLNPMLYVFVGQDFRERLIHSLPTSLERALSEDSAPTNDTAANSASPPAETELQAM
Experimental: as §1, §2
Cells expressing recombinant human ALX receptor and the G-protein Gα16 (HEK293-hALXR-Gα16) were grown to 80% confluency in Growing Medium (GM). Cells were detached from culture dishes with a cell dissociation buffer (Invitrogen, 13151-014), and collected by centrifugation at 1,000 rpm at rt for 5 min in Assay Buffer (AB) (equal parts of Hank's BSS (Gibco, 14065-049) and DMEM without Phenol Red (Gibco, 11880-028)). After 60 min incubation at 37° C. under 5% CO2 in AB supplemented with 1 μM Fluo-4 (AM) (Invitrogen, F14202), and 20 mM HEPES (Gibco, 15630-056), the cells were washed and resuspended in AB. They were then seeded onto 384-well FLIPR assay plates (Greiner, 781091) at 50′000 cells in 70 μl per well and sedimented by centrifugation at 1,000 rpm for 1 min. Stock solutions of test compounds were made up at a concentration of 10 mM in DMSO, and serially diluted in AB to concentrations required for activation dose response curves. WKYMVm (Phoenix Peptides) was used as a reference agonist. FLIPR384 or FLIPR Tetra instruments (Molecular Devices) were operated according to the manufacturer's standard instructions, adding 4 μl of test compound dissolved at 10 mM in DMSO and diluted prior to the experiment in assay buffer to obtain the desired final concentration. Changes in fluorescence were monitored before and after the addition of test compounds at lex=488 nm and lem=540 nm. Emission peak values above base level after compounds addition were exported after base line subtraction. Values were normalized to high-level control (WKYMVm compound, 10 nM final concentration) after subtraction of the base line value (AB addition).

Structure (SMILES)	EC50 [1] [nM]	EC50 [2] [nM]
O=C(Nc1ccc(Br)cc1)C1C(C(=O)NC2CCNC2)C2C=CC1C21CC1 (mixture of isomers) [Example 9, (5R*)—N^5-(4-Bromophenyl)-(6R*)—N^6-(pyrrolidin-3-yl)-(4S*,7R*)-[4,7-ethenylene-spiro[2.4]heptane]-5,6-dicarboxamide]	1510	0.94
CC(C)(C)OC(=O)N1CCC(NC(=O)C2C(C(=O)Nc3ccc(Br)cc3)C3C=CC2C32CC2)C1 (mixture of isomers) [Example 14, (5R*)—N^5-(4-Bromophenyl)-(6R*)—N^6-(N-tert-butoxycarbonyl-pyrrolidin-3-yl)-(4S*,7R*)-[4,7-ethenylene-spiro[2.4]heptane]-5,6-dicarboxamide]	1690	1.2
O=C(NCC1CCCN1)C1C(C(=O)Nc2ccc(Br)cc2)C2C=CC1C21CC1 (mixture of isomers) [Example 18, (5R*)—N^5-(4-Bromophenyl)-(6R*)—N^6-(2-pyrrolidinyl-methyl)-(4S*,7R*)-[4,7-ethenylene-spiro[2.4]heptane]-5,6-dicarboxamide]	551	2
O=C(NCC1CCCO1)C1C(C(=O)Nc2ccc(Br)cc2)C2C=CC1C21CC1 (mixture of isomers) [Example 22, (5R*)—N^5-(4-Bromophenyl)-(6R*)—N^6-(2-tetrahydrofuranyl-methyl)-(4S*,7R*)-[4,7-ethenylene-spiro[2.4]heptane]-5,6-dicarboxamide]	4640	3.2
CCN(CC)CCCC(C)NC(=O)C1C(C(=O)Nc2ccc(Br)cc2)C2C=CC1C21CC1 (mixture of isomers) [Example 25, (5R*)—N^5-(4-Bromophenyl)-(6R*)—N^6-(5-(N,N-diethyl-amino)-pent-2-yl)-(4S*,7R*)-[4,7-ethenylene-spiro[2.4]heptane]-5,6-dicarboxamide]	365	3.9
O=C(Nc1ccc(Br)cc1)C1C(C(=O)NC2CCCNC2)C2C=CC1C21CC1 (mixture of isomers) [Example 26, (5R*)—N^5-(4-Bromophenyl)-(6R*)—N^6-(piperidin-3-yl)-(4S*,7R*)-[4,7-ethenylene-spiro[2.4]heptane]-5,6-dicarboxamide]	744	4.2
CC(CO)NC(=O)C1C(C(=O)Nc2ccc(Br)cc2)C2C=CC1C21CC1 (mixture of isomers) [Example 28, (5R*)—N^5-(4-Bromophenyl)-(6R*)—N^6-(1-hydroxy-prop-2-yl)-(4S*,7R*)-[4,7-ethenylene-spiro[2.4]heptane]-5,6-dicarboxamide]	> 25000	4.5
CN1CCCC1CCNC(=O)C1C(C(=O)Nc2ccc(Br)cc2)C2C=CC1C21CC1 (mixture of isomers) [Example 33, (5R*)—N^5-(4-Bromophenyl)-(6R*)—N^6-(2-(1-methyl-pyrrolidin-2-yl)-ethyl)-(4S*,7R*)-[4,7-ethenylene-spiro[2.4]heptane]-5,6-dicarboxamide]	4100	5.8
O=C(NCC1COCCO1)C1C(C(=O)Nc2ccc(Br)cc2)C2C=CC1C21CC1 (mixture of isomers) [Example 41, (5R*)—N^5-(4-Bromophenyl)-(6R*)—N^6-([1,4]-dioxan-2-yl-methyl)-(4S*,7R*)-[4,7-ethenylene-spiro[2.4]heptane]-5,6-dicarboxamide]	8510	9.5
CCN1CCCC1CNC(=O)C1C(C(=O)Nc2ccc(Br)cc2)C2C=CC1C21CC1 (mixture of isomers) [Example 54, (5R*)—N^5-(4-Bromophenyl)-(6R*)—N^6-[(1-ethyl-pyrrolidin-2-yl)-methyl]-(4S*,7R*)-[4,7-ethenylene-spiro[2.4]heptane]-5,6-dicarboxamide]	2590	16
CC(C)(C)OC(=O)N1CCCC(NC(=O)C2C(C(=O)Nc3ccc(Br)cc3)C3C=CC2C32CC2)C1 (mixture of isomers) [Example 56, (5R*)—N^5-(4-Bromophenyl)-(6R*)—N^6-(N-tert-butoxycarbonyl-piperidin-3-yl)-(4S*,7R*)-[4,7-ethenylene-spiro[2.4]heptane]-5,6-dicarboxamide]	1750	18
CC(C)CC(CO)NC(=O)C1C(C(=O)Nc2ccc(Br)cc2)C2C=CC1C21CC1 (mixture of isomers) [Example 59, (5R*)—N^5-(4-Bromophenyl)-(6R*)—N^6-[(2S)-1-hydroxy-4-methyl-pent-2-yl]-(4S*,7R*)-[4,7-ethenylene-spiro[2.4]heptane]-5,6-dicarboxamide]	8280	21
CC(NC(=O)C1C(C(=O)Nc2ccc(Br)cc2)C2C=CC1C21CC1)C(N)=O (mixture of isomers) [Example 65, (5R*)—N^5-(4-Bromophenyl)-(6R*)—N^6-[(1S)-1-carbamoyl-ethyl]-(4S*,7R*)-[4,7-ethenylene-spiro[2.4]heptane]-5,6-dicarboxamide]	> 25000	26
O=C(NCC(c1ccccc1)N1CCOCC1)C1C(C(=O)Nc2ccc(Br)cc2)C2C=CC1C21CC1 (mixture of isomers) [Example 77, (5R*)—N^5-(4-Bromophenyl)-(6R*)—N^6-(2-phenyl-2-morpholino-ethyl)-(4S*,7R*)-[4,7-ethenylene-spiro[2.4]heptane]-5,6-dicarboxamide]	2280	80
CC(C)(C)OC(=O)N1CCCC1CNC(=O)C1C(C(=O)Nc2ccc(Br)cc2)C2C=CC1C21CC1 (mixture of isomers) [Example 79, (5R*)—N^5-(4-Bromophenyl)-(6R*)—N^6—(N-tert-butoxycarbonyl-pyrrolidin-2-yl-methyl)-(4S*,7R*)-[4,7-ethenylene-spiro[2.4]heptane]-5,6-dicarboxamide]	1300	96
NC(=O)C1CCCCC1NC(=O)C1C(C(=O)Nc2ccc(Br)cc2)C2C=CC1C21CC1 (mixture of isomers) [Example 81, (5R*)—N^5-(4-Bromophenyl)-(6R*)—N^6-(2-carbamoyl-cyclohexyl)-(4S*,7R*)-[4,7-ethenylene-spiro[2.4]heptane]-5,6-dicarboxamide]	8730	100
CC(NC(=O)C1C(C(=O)Nc2ccc(Br)cc2)C2C=CC1C21CC1)C(=O)N1CCCCC1 (mixture of isomers) [Example 82, (5R*)—N^5-(4-Bromophenyl)-(6R*)—N^6-(1-piperidin-1-yl-propan-1-on-2-yl)-(4S*,7R*)-[4,7-ethenylene-spiro[2.4]heptane]-5,6-dicarboxamide]	6590	118
NC(=O)C(Cc1ccccc1)NC(=O)C1C(C(=O)Nc2ccc(Br)cc2)C2C=CC1C21CC1 (mixture of isomers) [Example 95, (5R*)—N^5-(4-Bromophenyl)-(6R*)—N^6-[(1S)-1-carbamoyl-2-phenyl-ethyl]-(4S*,7R*)-[4,7-ethenylene-spiro[2.4]heptane]-5,6-dicarboxamide]	1850	223
